The record followed here is a melting point compilation (Tetko et al.; mined from patent text by program, amines drawn as free bases though some values may be those of a salt).

`CS(=O)(=O)c1ccc(-n2cnc3ccc(-c4nnc(C5CC5)o4)cc32)cc1` registered a melting point of 215 to 216 °C.

`CC(C)(Cc1ccc(Cl)cc1)C(=O)Cn1cncn1` had a melting point of 127 °C.

On to `OCc1cc(OCc2ccc(C(F)(F)F)cc2)ccn1`, for which the melting point fell in the range of 96 to 98 °C.

As for `O=Cc1c(O)cccc1[N+](=O)[O-]`, the melting point lay in the range of 52 to 53 °C.

`COc1cc(Cc2nc(NCC(C)C)c3c(C)c(C#N)sc3n2)cc(OC)c1OC` returned a melting point of 129 to 131 °C.

The compound `Cc1cccc(Nc2ncnc3ccc(OCCBr)cc23)c1` displayed a melting point of 129 to 135 °C.

Turning to `CCC1c2cccn2-c2cc(OC)c(F)cc2N1S(=O)(=O)c1ccc(OC)c(C)c1` (stereo not given), the melting point lay in the range of 130 to 132 °C.

In turn, `CCCCCCCCCCOc1ccc(-c2ccc(C(C)=O)cc2)cc1` returned a melting point of 102 to 104 °C.

The compound `COc1ccc2c(c1)C(CCNC(C)=O)C1(CC2)Cc2ccccc2C1` (stereo not given) returned a melting point of 139 to 141 °C.

As to `CC1=NCC2CN=C(c3ccccc3F)c3cc(Cl)ccc3N12` (stereo not given), the melting point lay within 142 to 144 °C.

`CCOC(=O)CC1=COc2ccc(O)cc2O1` displayed a melting point of 160 °C.

Compound `O=C(O)CCc1cnoc1-c1cc(Cl)c(Cl)s1` came in with a melting point of 142 to 143 °C.

The compound `Cc1ccc(OC2CCN(CCc3c[nH]c4ccccc34)CC2)cc1` registered a melting point of 115 to 117 °C.

In turn, `O=[N+]([O-])c1cccc(C(O)CO)c1` (racemic) showed a melting point of 45 °C.

`O=C1OC2(CC(c3ccccc3C(F)(F)F)=NO2)c2ccccc21` (stereo not given) gave a melting point of 149 to 150 °C.

Take `O=P(O)(O)CNCCc1ccccc1`: the melting point fell in the range of 148 to 150 °C.

With `CCOC(=O)C1=C(COCCNS(=O)(=O)c2ccc(Cl)nc2)NC(C)=C(C(=O)OC)C1c1ccccc1Cl` (stereo not given), the melting point amounted to 140 °C.

Compound `O=C(CNC(=O)c1ccc(Cl)c(Cl)c1)c1ccoc1` displayed a melting point of 133 to 134 °C.

As to `CN(c1ccccc1)c1cc(NCc2ccco2)c(C(=O)O)cc1S(N)(=O)=O`, the melting point amounted to 145 °C.

Compound `Nc1nc(/C=C/c2ccc([N+](=O)[O-])cc2)cs1` gave a melting point of 278 °C.

The compound `CCN1C(=O)c2cccnc2Sc2ccccc21` returned a melting point of 148 to 149 °C.

`O=S1(=O)CCN2CCCC(c3ccc(Oc4ccc(C(F)(F)F)cc4)cc3)C2=N1` (stereo not given) showed a melting point of 191 to 193 °C.

Consider `ClCCCn1c2ccccc2c2cc(-c3nc(C4CC4)no3)ncc21`, for which the melting point lay in the range of 165 to 169 °C.

On to `CC(C)C(=O)NC1C=CC(CO)C1` (stereo not given), for which the melting point fell in the range of 80 to 81 °C.

`Cc1c(C)c(N2CCN(c3ccc(CN)cc3)CC2)c(C)c2c1OC(C)(C)C2` had a melting point of 156 to 158 °C.

In the case of `COc1ccc2c(c1)CCC1C2C(O)CC2(C)C(O)CCC12` (stereo not given), the melting point was 161 to 162 °C.

Compound `CCOc1ccccc1CNc1c(C#N)ccnc1C(N)=O` returned a melting point of 150 to 152 °C.

For `O=[N+]([O-])c1ccc(-c2nnn(Cc3ccccc3)n2)cc1`, the melting point lay within 139 to 141 °C.

For the compound `CCOC(=O)C(C)Oc1ccc(C(C)=O)cc1` (stereo not given), the melting point was 49.6 °C.

`CCOC(=O)c1c(CSc2ccccc2)n(C)c2cc(Br)c(O)cc12` gave a melting point of 196 to 197 °C.

`O=C1c2ccccc2-c2c1c1ccc([N+](=O)[O-])cc1c(=O)n2CCCNS(=O)(=O)c1ccccc1` yielded a melting point of 258 to 259 °C.

For `COc1nc2ncccc2c2nc(SCc3ccccc3)nn12`, the melting point was in the range of 282 to 284 °C.

In the case of `COc1cc(OC)c(C2C=CCN(C)C2)c(OC)c1` (stereo not given), the melting point lay in the range of 118 to 122 °C.

With `c1ccc(-c2nc3ncccc3[nH]2)nc1`, the melting point fell in the range of 139 to 142 °C.

With `N#CNC(=N)CCCc1ccccc1Sc1ccccc1CCCC(=N)NC#N`, the melting point is 155 to 157 °C.

For the compound `CC(C)(C)c1ccc(C(=O)Nc2cn3nc(NCCc4ccncc4)ccc3n2)cc1`, the melting point is 279 °C.

As to `NCc1noc(-c2ncn3c2[C@@H]2CCN2C(=O)c2c(Cl)cccc2-3)n1`, the melting point was in the range of 206 to 208 °C.

Consider `OCc1cc2c3ccccc3n(Cc3ccccc3)c2s1`, for which the melting point is 81 to 82 °C.

Compound `Cc1cc2c(s1)S(=O)CCc1cc(=O)n(-c3ccc(Cl)cc3)nc1-2` (stereo not given) had a melting point of 174 to 175 °C.

`CCC(C(=O)O)c1cccc(Oc2ccccc2Cl)c1O` (stereo not given): the melting point lay within 143 to 145 °C.

Compound `COc1nc(C(F)(F)C(F)(F)F)cc(=O)n1-c1cc(C(=O)OC(C)C)c(Cl)cc1F` yielded a melting point of 82 to 84 °C.

In the case of `CC(CO)C1CCC2C3C=CC4=CC(=O)C5OC5C4(C)C3CCC12C` (stereo not given), the melting point lay within 158 to 161 °C.

`COC(=O)C(=O)c1cc(O)c(O)c(C#N)c1`: the melting point came out at 252 °C.

For `O=C(O)C(=O)c1ccc(OCCOc2ccc(Oc3ccccc3)cc2)cc1`, the melting point is 124 to 126 °C.

In turn, `C[C@H]1CCCC(C)(C)[C@@H]1C(=O)c1cc(F)c(F)c(F)c1` came in with a melting point of 56.7 °C.

Regarding `OCC1c2cc(Cl)ccc2Oc2ccc(Cl)cc21`, the melting point is 134 to 136 °C.

Compound `N#CCCc1cccc(-c2nc(=O)c3ccccc3s2)n1` came in with a melting point of 157 °C.

On to `COc1cc(Nc2c(C#N)cnc3cc4cc(OCCN5CCOCC5)c(OC)cc4cc23)c(Cl)cc1C`, for which the melting point is 220 to 222 °C.

The compound `CCc1c2c(cc3c(=O)cc(C(=O)O)oc13)CCCC2` yielded a melting point of 269 to 271 °C.

On to `Cc1nc(-c2ccc(O)cc2)[nH]c1Br`, for which the melting point was 205 to 212 °C.

In turn, `c1ccc2c(c1)CCc1c-2noc1N1CCNCC1` registered a melting point of 97 to 99 °C.

Compound `CONS(=O)(=O)c1ccc(Cl)s1` displayed a melting point of 65.5 to 66.5 °C.

Turning to `NC(=O)[C@@H]1C[C@H](C(=O)O)Nc2cc(Cl)cc(Cl)c21` (relative stereo), the melting point fell in the range of 220 to 222 °C.

With `COC(=O)c1ccc(Nc2ccn(-c3ccccc3)n2)cc1`, the melting point fell in the range of 160 to 161 °C.

`COc1ccc(C(=O)Nc2ccccc2)cc1NCc1ccc(O)cc1` showed a melting point of 188 to 190 °C.

Turning to `COC(=O)CCCNC(=O)CNS(=O)(=O)c1ccc2ccccc2c1`, the melting point lay in the range of 187 to 189 °C.

In turn, `CCON=C(CC)C1=C(O)CC(c2c(C)c([N+](=O)[O-])c(C)c([N+](=O)[O-])c2C)CC1=O` (stereo not given) came in with a melting point of 170 °C.

As to `CCCN(CCC)S(=O)(=O)c1cc(-c2csc(=Nc3ccccc3C)n2C)ccc1Cl`, the melting point lay within 114 to 116 °C.

For the compound `NS(=O)(=O)c1ccc(-c2cc(-c3nc(-c4ccc(C(F)(F)F)cc4)cc(C(F)(F)F)n3)ccn2)s1`, the melting point was found to be 262 °C.

Take `Cc1ccc(-c2nc(Cc3cccc(Br)c3)c(C)o2)cc1`: the melting point was in the range of 74 to 75 °C.

Compound `COC(=O)[C@@H]1CSCc2c(O[Si](C)(C)C(C)(C)C)cc(OC)c(C)c2C(=O)OC[C@H](O)C(=O)N1` returned a melting point of 237 to 240 °C.

For the compound `CCC[C@H]1CC[C@H](CCc2ccc(-c3ccc(C#N)cc3F)cc2)CC1`, the melting point turned out to be 89.4 °C.

Regarding `CC1(C)C(C#N)C1C(=O)O` (stereo not given), the melting point was 101 to 106 °C.

Compound `CC(=O)OCC(=O)C12OCOC1CC1C3CCC4=CC(=O)CCC4(C)C3(F)C(O)CC12C` (stereo not given) had a melting point of 264 to 266 °C.

Regarding `Oc1ccc(-c2cc3c(Br)c(O)ccc3o2)cc1`, the melting point was in the range of 196 to 198 °C.

Compound `Cc1nn(-c2ccsc2)c(=O)cc1-c1ccc(OC2CCN(C3CCC3)CC2)cc1` returned a melting point of 277 to 279 °C.

`COc1cc2c3c(cccc3c1OC)C(=O)N(O)C2=O` registered a melting point of 226 to 228 °C.

The compound `O=Cc1cccc(OCc2ccc3ccccc3n2)c1` showed a melting point of 48 to 53 °C.

`CC(=O)C(=CNc1cc(Cl)c(Cl)c(C(=O)O)c1Cl)C(C)=O` had a melting point of 242 to 244 °C.

The compound `O=C1Nc2ccccc2N(C(=O)CN2CCCCC2CN2CCCCC2)c2ccccc21` (stereo not given) came in with a melting point of 220 to 221 °C.

The compound `CC(C)c1cccc(C(C)C)c1NC(=O)CNC(c1ccccc1)c1cccs1` (stereo not given) displayed a melting point of 164 to 166 °C.

As to `CC(C)[C@H](NC(=O)OCc1ccccc1)C(=O)NC(Cc1ccccc1)C(O)C(Cc1ccccc1)NC(=O)[C@@H](NC(=O)c1cccnc1)C(C)C` (stereo not given in full), the melting point fell in the range of 196 to 199 °C.

Turning to `CS(=O)(=O)c1ccc(-c2n[nH]c(C(F)(F)F)c2-c2ccc(F)cc2)cc1`, the melting point lay within 219 to 220 °C.

`O=C1C(Cl)=C(N2CCN(C(=O)Nc3ccccc3Cl)CC2)C(=O)c2ccccc21`: the melting point was in the range of 160 to 163 °C.

`CCCCC(CC)COC(=O)Nc1ccc(C=C(C#N)C(=O)OCC)cc1` (stereo not given) yielded a melting point of 105 °C.

Regarding `CN(CCCCCNC(=O)NCCCOc1cccc(CN2CCCCC2)c1)CCN(Cc1ccc(F)cc1)c1ccccn1`, the melting point stood at 63 °C.

Compound `CCCC(=O)c1ccc(OC)c(Cl)c1Cl` showed a melting point of 42 to 44 °C.

For `CC(C)(C)C(O)C(=Cn1ccnc1)Oc1ccc(Cl)cc1` (stereo not given), the melting point fell in the range of 141 to 143 °C.

Consider `O=[N+]([O-])C=Cc1ccc(O)c(Cl)c1`, for which the melting point was 127 to 129 °C.

For the compound `N#Cc1ccc(-c2ccno2)cc1`, the melting point was 148 to 149 °C.

Compound `CC(C)n1nc(-c2c(-c3ccccc3)nn3c(N)cccc23)ccc1=O` showed a melting point of 218 to 219 °C.

`COc1cccc2c1nnn2C1CCCCC1` gave a melting point of 118 to 120 °C.

For `O=C(O)[C@H](Cc1ccc(C(F)(F)F)cc1)[C@@H](O)c1ccc(Oc2ccccc2)cc1` (racemic), the melting point lay within 128 to 129 °C.

`CC(=O)Nc1c(C(=O)c2cccc(NS(C)(=O)=O)c2)[nH]c2cc(Cl)ccc12` displayed a melting point of 133 to 142 °C.

For `CCCOc1ccccc1-c1nc2c(C(=O)O)cccc2c(=O)[nH]1`, the melting point was in the range of 195 to 197 °C.

With `Cn1nc(-c2ccc(F)cc2)c(-c2ccncc2)c1NC(=O)Cc1ccc(O)cc1`, the melting point is 127 to 129 °C.

For the compound `COC(=O)C1=C(C)NN=C(c2ccccc2)C1c1cccc(Cl)c1` (stereo not given), the melting point worked out at 189 °C.

Turning to `CCC(=O)Nc1ccc(-c2ccc(C(=O)N3CCN4CCC3CC4)o2)cc1`, the melting point amounted to 264 °C.

For `CSc1ccc(NC(=N)c2ccc(F)cc2)cc1`, the melting point lay within 121 to 124 °C.

`O=C(Cn1nc(-c2ccccc2O)nc1-c1ccccc1O)NCCO` had a melting point of 208 to 211 °C.

A word on the melting point: it is the temperature of the solid-liquid transition.
